The assay concerns L1210. The experiment in a line: Inhibitory activity against L1210 cell line. It is filed as functional, cell-based. As to conditions: Mus musculus.
As usually defined, the IC50 is the concentration that inhibits the measured activity by half. Turning to `COc1cc([C@@H]2c3cc4c(cc3[C@@H](O[C@@H]3O[C@H]5CO[C@@H](C)O[C@H]5[C@H](O)[C@@H]3O)[C@H]3C(=O)OC[C@H]23)OCO4)cc(OC)c1O`, inhibition was half-maximal at 6.74 µM (IC50).

Take `COc1cc([C@@H]2c3cc4c(cc3[C@@H](O)C3C(=O)OCC32)OCO4)cc(OC)c1O` (stereo partly drawn): the IC50 was 27.4 µM.

For the molecule `COc1cc([C@@H]2c3cc4c(cc3[C@@H](O[C@@H]3O[C@@H]5CO[C@@H](C)O[C@H]5[C@H](O)[C@H]3O)[C@H]3COC(=O)[C@H]23)OCO4)cc(OC)c1O` [ETOPOSIDE], the IC50 turned out to be 0.834 µM.

(Values after ChEMBL document CHEMBL1136446, “Synthesis and antiproliferative activity of retroetoposide” (Bioorg Med Chem Lett, 2003).)
